This passage reports IC50 and IC90 results from ChEMBL document CHEMBL1138139, “Synthesis of 1-(3',4',5'-trimethoxy) phenyl naphtho[2,1b]furan as a novel anticancer agent” (Bioorg Med Chem Lett, 2006).

Common to all, as to format: functional, cell-based
One assay deals with COLO 320DM. The assay can be described thus: Cytotoxicity against human COLO320DM cell line by MTT assay. (In general: Tetrazolium assays rely on reduction of a dye to a coloured formazan, in cell work by metabolically active cells.)
The test system of another assay is PA-1. Kind of assay: Cytotoxicity against human PA1 cell line by MTT assay.
A further assay has as its system Caco-2. Kind of assay: Cytotoxicity against human Caco-2 cell line by MTT assay.
A further assay concerns WRL68. The assay can be described thus: Cytotoxicity against human WRL68 cell line by MTT assay.
Another assay has as its system KB. The assay can be described thus: Cytotoxicity against human KB403 cell line by MTT assay.
The next assay has as its system MCF7. The assay can be described thus: Cytotoxicity against MCF7 cell line by MTT assay. The following applies: Homo sapiens.

≈ marks a conversion by molar mass, not a printed value.

By IC50 is commonly meant the concentration that inhibits the measured activity by half. High values mean weaker potency in that assay, low ones greater potency in that assay. For orientation: IC90 means the concentration at which the effect reaches the 90% level. Read a high IC90 as weaker potency. With `COc1ccc(-c2coc3ccc4ccccc4c23)cc1`, the IC50 in the assay on COLO 320DM worked out at 5 µg/mL (≈ 18.2 µM); with PA-1, 4 µg/mL (≈ 14.6 µM); in the assay on Caco-2, 0.95 µg/mL (≈ 3.46 µM); in the assay with WRL68 it was 6 µg/mL (≈ 21.9 µM). Moreover, the values for the 90% effect concentration (IC90) with PA-1 and in the assay on Caco-2 were 8 µg/mL (≈ 29.2 µM) and 7.5 µg/mL (≈ 27.3 µM), respectively.
In the case of `c1ccc(-c2coc3ccc4ccccc4c23)cc1`, in the assay with KB, the IC50 was 9 µg/mL (≈ 36.8 µM).
In the case of `CC(=O)O[C@H]1C(=O)[C@@]2(C)[C@H]([C@H](OC(=O)c3ccccc3)[C@]3(O)C[C@H](OC(=O)[C@H](O)[C@@H](NC(=O)c4ccccc4)c4ccccc4)C(C)=C1C3(C)C)[C@]1(OC(C)=O)CO[C@@H]1C[C@@H]2O` [PACLITAXEL], the IC90 came to 0.85 µg/mL (≈ 0.995 µM) with MCF7; 0.047 µg/mL (≈ 0.055 µM) in the assay with KB; 0.01 µg/mL (≈ 0.0117 µM) in the assay with COLO 320DM; 0.9 µg/mL (≈ 1.05 µM) in the assay on PA-1; 0.065 µg/mL (≈ 0.0761 µM) in the assay on Caco-2; 2.5 µg/mL (≈ 2.93 µM) in the assay on WRL68. For the same molecule, the IC50 in the assay on KB worked out at 0.001 µg/mL (≈ 0.00117 µM); in the assay with COLO 320DM, 0.0045 µg/mL (≈ 0.00527 µM); in the assay with PA-1, 0.006 µg/mL (≈ 0.00703 µM); with Caco-2 it was 0.007 µg/mL (≈ 0.0082 µM); with WRL68, 0.0035 µg/mL (≈ 0.0041 µM).
With `COc1cc(-c2coc3ccc4ccccc4c23)cc(OC)c1OC`, the IC50 in the assay with KB came out at 8 µg/mL (≈ 23.9 µM); with COLO 320DM, 0.65 µg/mL (≈ 1.94 µM); with PA-1, 3.5 µg/mL (≈ 10.5 µM); in the assay with Caco-2, 0.5 µg/mL (≈ 1.5 µM); in the assay on WRL68, 0.7 µg/mL (≈ 2.09 µM). Further, the IC90 in the assay on KB worked out at 10 µg/mL (≈ 29.9 µM); with COLO 320DM it was 4 µg/mL (≈ 12 µM); with PA-1 it was 4.5 µg/mL (≈ 13.5 µM); in the assay on WRL68, 5 µg/mL (≈ 15 µM).
